Key:
[1] = Intrathecal screening of patients treated with opioids: anti-nociceptive effects (Efficacy) monitored at several time points; type: in vivo
Experimental: Patients being treated with opioids underwent intrathecal screening, in which the evidence of side effects is extremely significant.
(§1) A dose of opioids was administered with or without naltrexone and the adverse events or side-effects and anti-nociceptive effects were monitored at several time points.
(§2) In particular, patients with chronic (non-oncological) spinal pain and oncological patients in the non-terminal phase with evidence of side effects after minimum doses of opioids were monitored.

[2] = Intrathecal screening of patients treated with opioids: adverse events / side-effects monitored at several time points; type: in vivo; set-up: key to vertigo / vomiting / pruritus / nausea / numbness / side-effects (grade printed beside morphine) / drowsiness / constipation / loss of appetite / urinary retention / sweating: (0) = none; (1) = mild; (2) = moderate; (3) = intense; (4) = severe
Experimental: as §1, §2

[3] = Algoneurodystrophy, 2 h, without naltrexone
[4] = Secondary bone and marrow malignancies (patient at r76), without naltrexone
[5] = Back pain, 1 h, without naltrexone
[6] = Back pain, 2 h, without naltrexone
[7] = Back pain, 4 h, without naltrexone
[8] = Back pain, 24 h, without naltrexone
[9] = Cancer of the pancreas, without naltrexone
[10] = Diabetes mellitus type II, without naltrexone
[11] = Lumbago, 4 h, without naltrexone
[12] = Lumbago, 6 h, without naltrexone
[13] = Lumbago, 8 h, without naltrexone
[14] = Lumboischialgia in diabetic patients (VAS 6-7), without naltrexone
[15] = Lumboischialgia, without naltrexone
[16] = Lumbosacral spondylitis without myelopathy, 2 h-4 h, without naltrexone
[17] = Multiple sclerosis, without naltrexone
[18] = Nonspecific coccyx disorders, 6 h, without naltrexone
[19] = Persistent pain syndrome, without naltrexone
[20] = Right lumboischialgia, without naltrexone
[21] = Secondary bone and marrow malignancies (patient at r66), without naltrexone
[22] = Secondary malignancies of bone and marrow, without naltrexone
[23] = Stenosis of the lumbar spinal canal, without naltrexone
[24] = Persistent pain syndrome, with naltrexone
[25] = Right lumboischialgia, with naltrexone
[26] = Right lumboischialgia, with naltrexone, first mention in the cell
[27] = Right lumboischialgia, with naltrexone, second mention in the cell
[28] = Secondary bone and marrow malignancies (patient at r66), with naltrexone
[29] = Spinal pain, 4 h, with naltrexone
[30] = Spinal pain, 6 h, with naltrexone

Compound: CN1CC[C@]23c4c5ccc(O)c4O[C@H]2[C@@H](O)C=C[C@H]3[C@H]1C5 [morphine]
- Efficacy [1, 3]: 2 h: 30-40%
- Efficacy ([1]; Algoneurodystrophy, 8 h, without naltrexone): 8 h: 80%
- Efficacy ([1]; Algoneurodystrophy, 14 h, without naltrexone): 14 h: 70%
- Efficacy ([1]; Lumbosacral spondylitis without myelopathy, 2 h-24 h, without naltrexone): 2 h-24 h: 80%
- Efficacy ([1]; Nonspecific coccyx disorders, without naltrexone): Efficacy <30%
- Efficacy [1, 4]: Efficacy: 100%
- pruritus ([2]; Algoneurodystrophy, 6-8 h, without naltrexone): 6-8 h: pruritus (3), urinary
- pruritus ([2]; Algoneurodystrophy, 1 h, without naltrexone): 1 h: pruritus (3)
- pruritus [2, 3]: 2 h: pruritus (3)
- vertigo ([2]; Back pain, 30 min, without naltrexone): 30 min: vertigo (1)
- nausea [2, 5]: 1 h: vertigo (1), nausea (1)
- vertigo [2, 5]: 1 h: vertigo (1), nausea (1)
- vertigo [2, 6]: 2 h: vertigo (2), vomiting (2)
- vomiting [2, 6]: 2 h: vertigo (2), vomiting (2)
- nausea [2, 7]: 3
- vertigo [2, 7]: 2
- vomiting [2, 7]: vomiting (2)
- pruritus ([2]; Back pain, 8 h, without naltrexone): 8 h: pruritus (2)
- nausea [2, 8]: 24 h: nausea (2), vertigo (2)
- vertigo [2, 8]: 24 h: nausea (2), vertigo (2)
- constipation [2, 9]: constipation
- nausea [2, 9]: 3
- nausea [2, 10]: 3
- pruritus [2, 10]: 4
- drowsiness ([2]; Lumbago, 1 h, without naltrexone): 1 h: drowsiness (1)
- nausea [2, 11]: 4 h: nausea (2), vomiting (2)
- vomiting [2, 11]: 4 h: nausea (2), vomiting (2)
- nausea [2, 12]: 3
- pruritus [2, 12]: 6 h: pruritus (3), urinary reten-
- vomiting [2, 12]: 2
- nausea [2, 13]: 3
- pruritus [2, 13]: pruritus (3), urinary retention (3)
- vomiting [2, 13]: 2
- constipation [2, 14]: constipation
- drowsiness [2, 14]: drowsiness
- nausea [2, 14]: nausea
- oedema [2, 14]: moderate
- pruritus [2, 14]: pruritus
- nausea [2, 15]: nausea (2),
- pruritus [2, 15]: 2
- sweating [2, 15]: sweating (2), vertigo (2),
- vertigo [2, 15]: sweating (2), vertigo (2),
- vomiting [2, 15]: 3
- nausea [2, 16]: nausea
- vomiting [2, 16]: vomiting
- vomiting ([2]; Lumbosacral spondylitis without myelopathy, 6 h-8 h, without naltrexone): 6 h-8 h: vomiting
- constipation [2, 17]: constipation
- loss of appetite [2, 17]: loss of appetite
- nausea [2, 17]: nausea
- vertigo [2, 17]: vertigo
- vomiting ([2]; Nonspecific coccyx disorders, 4 h, without naltrexone): 4 h: recurrent vomiting
- nausea [2, 18]: 6 h: vomiting (3), nausea (3)
- vomiting [2, 18]: 6 h: vomiting (3), nausea (3)
- asthenia ([2]; Nonspecific coccyx disorders, 8 h, without naltrexone): 8 h: asthenia
- side-effects (grade printed beside morphine) ([2]; Nonspecific coccyx disorders, time not given, without naltrexone): morphine (0)
- nausea [2, 19]: nausea
- vertigo [2, 19]: vertigo
- vomiting [2, 19]: 4
- nausea [2, 20]: 2
- pruritus [2, 20]: 4
- vomiting [2, 20]: ing (2), urinary retention (2)
- constipation [2, 21]: constipation (3), drowsiness (3),
- drowsiness [2, 21]: constipation (3), drowsiness (3),
- constipation [2, 4]: tion (1)
- loss of appetite [2, 4]: nausea (4), loss of appetite (4),
- nausea [2, 4]: nausea (4), loss of appetite (4),
- vertigo [2, 4]: 4
- vomiting [2, 4]: vomiting
- constipation [2, 22]: constipation
- pruritus [2, 22]: pruritus (3)
- headache [2, 23]: headache
- nausea [2, 23]: 4
- pruritus [2, 23]: 1
- sweating [2, 23]: sweating
- vomiting [2, 23]: vomiting

Compound: O=C1CC[C@@]2(O)[C@H]3Cc4ccc(O)c5c4[C@@]2(CCN3CC2CC2)[C@H]1O5 [naltrexone]
- Efficacy ([1]; Lumbago, 1 h, with naltrexone): 1 h: 30-50%
- Efficacy ([1]; Lumbago, 4 h-8 h, with naltrexone): 4 h-8 h: >50%
- Efficacy ([1]; Spinal pain, 1 h-8 h, at rest, with naltrexone): 1 h-8 h: at rest 100%, under
- Efficacy ([1]; Spinal pain, 1 h-8 h, under strain, with naltrexone): strain 70%
- chest pain ([2]; Back pain, h 17.30, with naltrexone): chest pain
- tachycardia ([2]; Back pain, h 18.30, with naltrexone): h 18.30: tachycardia
- benefit ([2]; Diabetes mellitus type II, with naltrexone): benefit 100%
- drowsiness ([2]; Lumbago, 1 h, with naltrexone): 1 h: drowsiness (1)
- pruritus ([2]; Lumbago, 2 h, with naltrexone): 2 h: pruritus (2)
- drowsiness ([2]; Lumbago, 4 h, with naltrexone): 4 h: drowsiness (2), pruritus (2)
- pruritus ([2]; Lumbago, 4 h, with naltrexone): 4 h: drowsiness (2), pruritus (2)
- drowsiness ([2]; Lumbago, 6 h, with naltrexone): 1
- pruritus ([2]; Lumbago, 6 h, with naltrexone): 2
- constipation [2, 24]: constipation
- drowsiness [2, 24]: drowsiness
- nausea [2, 24]: nausea
- sweating [2, 24]: sweating
- vertigo [2, 24]: vertigo
- vomiting [2, 24]: vomiting
- side-effects ([2]; Persistent spinal pain syndrome of uncertain aetiology, with naltrexone): none
- nausea [2, 25]: 2
- vomiting [2, 25]: vomiting (2), urinary
- pruritus [2, 26]: 4
- urinary retention [2, 26]: 2
- pruritus [2, 27]: 1
- urinary retention [2, 27]: urinary retention (1)
- constipation [2, 28]: constipation (3), drowsiness
- drowsiness [2, 28]: 3
- urinary retention [2, 28]: short-lived
- pruritus improved by ([2]; Secondary malignancies of bone and marrow, with naltrexone): 90%
- numbness [2, 29]: 4 h: pruritus (1), numbness (1)
- pruritus [2, 29]: 4 h: pruritus (1), numbness (1)
- nausea [2, 30]: nausea (1)
- numbness [2, 30]: 6 h: pruritus (1), numbness (1),
- pruritus [2, 30]: 6 h: pruritus (1), numbness (1),
- nausea ([2]; Spinal pain, 8 h, with naltrexone): 8 h: nausea (1)
- nausea ([2]; Stenosis of the lumbar spinal canal, with naltrexone): nausea (1)
